Experimental data from patent US10751324B2, “Treatment of TNF- alpha cytotoxicity” (The University of Chicago, priority 2016, dated 2020).

How the values were obtained:
WT fibroblasts = test: TNFα-induced apoptosis in fibroblasts pre-treated with actin stress fiber modulators, Annexin V/PI flow cytometry; assay type: cell-based, mouse; conditions: for cytotoxic dose TNFα-induced apoptosis: pre-treated 1 hour (30 nM Jasplakinolide or 5 μM S1P), then 80 ng/ml TNFα, FIG. 10B, 10D; for apoptosis with non-cytotoxic dose TNFα: pre-treated 1 hour (1 μg/ml Cytochalasin D or 2.5 μg/ml Latrunculin B), 5 ng/ml TNFα 12 hours, FIG. 10F, 10H
Method: Annexin V and propidium iodide (PI) staining was performed with FITC Annexin V apoptosis Detection kit (BD Pharmingen). Apoptotic cells were analyzed by FACS canto flow cytometer (BD Biosciences).
(§1) WT and Bad-deficient fibroblasts were pre-treated with 30 nM Jasplakinolide (FIG. 10A and FIG. 10B), 5 μM Sphingosine-1-phosphate (S1P) (FIG. 10C and FIG. 10D) or DMSO (control) for 1 hour, followed by stimulation with or without 80 ng/ml TNFα for various times, as indicated. Cell extracts were separated into cytosol and mitochondrial fractions. Subcellular localizations of BAD and IKK-phosphorylated BAD were determined. ß-actin, BCL-xL, and COX-2 were used as control (FIG. 10A and FIG. 10C). Apoptotic cells were identified by Annexin V and PI staining, followed by flow cytometric analysis. Data are as means±s.d. **, P<0.01, as analyzed by two-tailed Student's t test (FIG. 10B and FIG. 10D).
(§2) WT and Bad-deficient fibroblasts were pretreated with 1 μg/ml Cytochalasin D (FIG. 10E and FIG. 10F), 2.5 μg/ml Latrunculin B (FIG. 10G and FIG. 10H), or DMSO (control) for 1 hours, followed by stimulation with or without 5 ng/ml or 80 ng/ml TNFα for 4 hours (FIG. 10E and FIG. 10G) or 12 hours (FIG. 10F and FIG. 10H). Cell extracts were separated into cytosol and mitochondrial fractions. Subcellular localizations of BAD and IKK phosphorylated BAD were determined. ß-actin, BCL-xL, and COX-2 were used as control (FIG. 10E and FIG. 10G). Apoptotic cells were identified by Annexin V and PI staining, followed by flow cytometric analysis. Data are means±s.d. and represent three individual experiments. **, P<0.01, as analyzed by two-tailed Student's t test (FIG. 10B, FIG. 10D, FIG. 10F, and FIG. 10H).

BAD [1] = test: TNFα-induced BAD mitochondrial translocation in fibroblasts pre-treated with actin stress fiber modulators; assay type: cell-based, mouse; conditions: for cytotoxic dose TNFα-induced BAD mitochondrial translocation: pre-treated 1 hour (30 nM Jasplakinolide or 5 μM S1P), then 80 ng/ml TNFα, FIG. 10A, 10C; for BAD mitochondrial translocation with non-cytotoxic dose TNFα: pre-treated 1 hour (1 μg/ml Cytochalasin D or 2.5 μg/ml Latrunculin B), 5 ng/ml TNFα 4 hours, FIG. 10E, 10G
Method: Immunoprecipitation was performed as previously described (12). Caspase 3 assay was performed with Casp-3 cellular activity assay kit using Casp-3 substrate Ac-DEVD-pNA (Calbiochem). Active RhoA, active Src, and active Cdc42 assays were performed with G-LISA assay biochemical kit (Cytoskeleton, Inc.). Active GEF-H1 assay was performed by using GST-RhoA(G17A) to pull down the active GEF-H1 from cell extracts and analyzed by immunoblotting. Cytosol and mitochondria fractionations were prepared by the cytosol/mitochondria fractionation kit (Biovision), according to the manufacturer protocol. Cytoskeleton precipitation and G-actin/F-actin assay were performed by the G-actin/F-actin in vivo assay biochem kit (Cytoskeleton, Inc.)
as §1, §2

[2] = system: wild type mice subjected to CLP surgery; test: Polymicrobial infection model (cecal ligation and puncture, CLP), mortality rate; assay type: in vivo, mouse; conditions: 2.5 mg/kg i.p. 6 hours before CLP and each 12 hours after surgery; n=10, p<0.01; FIG. 20B
Method: Wild type C57B6/J6 mice were maintained in a specific pathogen-free facility and housed on a 12:12-hour light/dark photoperiod at an ambient temperature of 22° C.±2° C. All animal experiments were conducted in accordance with the protocols approved by the Institutional Animal Care and Use Committee of the University of Chicago. 6-8 week old male mice were used for all of the experiments. The bacterial infusion model was performed by intraperitoneal (i.p.) injection of E. coli (ATCC 25922; 3×10^7 CFU). For the polymicrobial infection model, the CLP procedure was performed. The severity of CLP was adjusted to a high-grade sepsis. For the mock CLP procedure (Sham), mice underwent the same abdominal surgery as CLP procedure, except were not subject to the cecal ligation and puncture. Inhibitor treatments were performed using i.p. injection of the compound at a dose of 2.5 mg/kg body weight. Same amount of DMSO were i.p. injected as a control. […] Mortality rates were recorded for up to 120 hours for the CLP model and 50-60 hours for the E. coli model after the treatment and dying mice were pre-moved. […]
In these experiments, wild type mice were i.p injected with or without saracatinib (2.5 mg/kg body weight) for 6 hours, then challenged with E. coli (5×10^7CFU, i.p. injection). […] Mortality rate was determined (FIG. 20A); n=6, p<0.01. […] Mortality rate was determined (FIG. 20B); n=10, p<0.01.

IKKß = target: T1, IKKß (Mus musculus, UniProt O88351); test: IKKß phosphorylation by immunoblotting in TNFα-treated MEFs ("in vitro kinase assay"); assay type: cell-based; conditions: MEFs pre-treated with different doses for 1 hour, then cytotoxic TNFα 15 min; immunoblot, FIG. 17
T1 construct: Total cell lysate was prepared for western blotting analysis; endogenous in cells; host or cells: mouse embryonic fibroblasts (MEFs)
T1 sequence (O88351 1-757): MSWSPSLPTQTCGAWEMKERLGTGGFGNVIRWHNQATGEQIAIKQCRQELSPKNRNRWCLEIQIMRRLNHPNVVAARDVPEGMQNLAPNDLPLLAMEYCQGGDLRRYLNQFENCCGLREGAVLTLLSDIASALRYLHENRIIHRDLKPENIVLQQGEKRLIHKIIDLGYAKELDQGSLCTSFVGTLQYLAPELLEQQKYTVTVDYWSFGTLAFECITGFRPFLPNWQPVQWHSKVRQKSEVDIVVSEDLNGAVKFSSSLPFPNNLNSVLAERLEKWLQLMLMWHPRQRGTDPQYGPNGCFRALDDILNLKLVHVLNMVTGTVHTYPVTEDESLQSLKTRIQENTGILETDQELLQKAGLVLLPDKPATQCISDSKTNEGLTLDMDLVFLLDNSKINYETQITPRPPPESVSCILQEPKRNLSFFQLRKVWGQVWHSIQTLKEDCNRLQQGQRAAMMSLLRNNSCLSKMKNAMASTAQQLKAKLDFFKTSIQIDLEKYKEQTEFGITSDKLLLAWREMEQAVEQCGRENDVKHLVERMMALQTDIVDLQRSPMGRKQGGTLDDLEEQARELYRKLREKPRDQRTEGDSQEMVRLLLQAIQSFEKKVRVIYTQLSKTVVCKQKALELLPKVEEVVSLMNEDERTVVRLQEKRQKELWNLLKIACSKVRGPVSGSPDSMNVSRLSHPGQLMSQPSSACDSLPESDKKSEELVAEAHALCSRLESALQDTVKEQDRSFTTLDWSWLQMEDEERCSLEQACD

BAD [3] = test: Cytotoxic dose TNFα-induced BAD translocation to mitochondria, cell fractionation and immunoblotting in MEFs; conditions: MEFs pre-treated with different doses 1 hour, cytotoxic TNFα 4 hours; FIG. 19B

CCCCCCCCCCCCC/C=C/[C@@H](O)[C@@H](N)COP(=O)(O)O [sphingosine-1-phosphate, Sphingosine-1-phosphate]
cytotoxic dose TNFα-induced apoptosis (WT fibroblasts): significantly reduced | cytotoxic dose TNFα-induced BAD mitochondrial translocation (BAD [1]): significantly reduced

[2H]C([2H])([2H])N1CCN(CCOc2cc(OC3CCOCC3)c3c(Nc4c(Cl)ccc5c4OCO5)ncnc3c2)CC1 [ZG5129]
polymicrobial infection-induced severe sepsis (mortality rate) [2]: inhibit

C/C1=C\[C@H](C)C[C@H](C)OC(=O)C[C@H](c2ccc(O)cc2)NC(=O)[C@@H](Cc2c(Br)[nH]c3ccccc23)N(C)C(=O)[C@H](C)NC(=O)[C@@H](C)C1 [Jasplakinolide]
cytotoxic dose TNFα-induced apoptosis (WT fibroblasts): significantly reduced | cytotoxic dose TNFα-induced BAD mitochondrial translocation (BAD [1]): significantly reduced

Cc1nc(Nc2ncc(C(=O)Nc3c(C)cccc3Cl)s2)cc(N2CCN(CCO)CC2)n1.O [dasatinib, N-(2-chloro-6-methylphenyl)-2-[[6-[4-(2-hydroxyethyl)-1-piperazinyl]-2-methyl-4-pyrimidinyl]amino]-5-thiazole carboxamide monohydrate]
IKK phosphorylation (IKKß): do not inhibit | cytotoxic dose TNFα-induced BAD translocation to mitochondria (BAD [3]): inhibit

C=C1[C@@H](C)[C@H]2[C@H](Cc3ccccc3)NC(=O)[C@]23[C@H](OC(C)=O)/C=C/[C@@](C)(O)C(=O)[C@@H](C)C/C=C/[C@H]3[C@@H]1O [cytochalasin D, Cytochalasin D]
apoptosis with non-cytotoxic dose TNFα (WT fibroblasts): induced | BAD mitochondrial translocation with non-cytotoxic dose TNFα (BAD [1]): induced

C/C1=C/C(=O)O[C@@H]2C[C@@H](CC[C@H](C)/C=C\CC1)O[C@@](O)([C@@H]1CSC(=O)N1)C2 [latrunculin B, Latrunculin B]
apoptosis with non-cytotoxic dose TNFα (WT fibroblasts): induced | BAD mitochondrial translocation with non-cytotoxic dose TNFα (BAD [1]): induced

CN1CCN(CCOc2cc(OC3CCOCC3)c3c(Nc4c(Cl)ccc5c4OCO5)ncnc3c2)CC1 [saracatinib]
cytotoxic dose TNFα-induced BAD translocation to mitochondria (BAD [3]): inhibit
